From PubChem BioAssay AID1845205 (Molecular Pharmacology Branch, DTP, NCI, 2023)

System: MPNST multicellular tumor spheroids, viability % test/control
Test: Anticancer human tumor MPNST cell line growth inhibition;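 also: spheroids exposed to agents for seven days after three days of growth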;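 as to viability, T/C: luminescence signal used as surrogate for viable cell amount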
Conditions: for IC50: curve of first compound; for viability, T/C: stronger effect = lower value
Method in brief: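 Complex spheroids of malignant cells with endothelial cells and mesenchymal stem cells; agents alone or combined, from near clinical Cmax (or 10 microM if unknown) down in half-log steps, 0.25% DMSO final.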

Structure (SMILES): Cc1cc(C)c(CNC(=O)c2cc(-c3ccc(CN4CCOCC4)cc3)cc3c2cnn3C2CCCC2)c(=O)[nH]1 + COc1cc2c(cc1O)CCNC21CSC2c3c(OC(C)=O)c(C)c4c(c3C(COC1=O)N1C(O)C3Cc5cc(C)c(OC)c(O)c5C(C21)N3C)OCO4
- IC50 (second compound 30 pM): > 10 µM
- IC50 (second compound 94.9 pM): > 10 µM
- IC50 (second compound 0.0003 µM): > 10 µM
- IC50 (second compound 0.000949 µM): < 0.0316 µM
- IC50 (second compound 0.003 µM): < 0.0316 µM
- viability, T/C (second compound 30 pM, first compound 0.0316 µM): 106%
- viability, T/C (second compound 30 pM, first compound 0.1 µM): 93.7%
- viability, T/C (second compound 30 pM, first compound 0.316 µM): 85.2%
- viability, T/C (second compound 30 pM, first compound 1 µM): 101%
- viability, T/C (second compound 30 pM, first compound 3.16 µM): 113%
- viability, T/C (second compound 30 pM, first compound 10 µM): 99.3%
- viability, T/C (second compound 94.9 pM, first compound 0.0316 µM): 104%
- viability, T/C (second compound 94.9 pM, first compound 0.1 µM): 89.8%
- viability, T/C (second compound 94.9 pM, first compound 0.316 µM): 71%
- viability, T/C (second compound 94.9 pM, first compound 1 µM): 102%
- viability, T/C (second compound 94.9 pM, first compound 3.16 µM): 120%
- viability, T/C (second compound 94.9 pM, first compound 10 µM): 68.9%
- viability, T/C (second compound 0.0003 µM, first compound 0.0316 µM): 86%
- viability, T/C (second compound 0.0003 µM, first compound 0.1 µM): 80.3%
- viability, T/C (second compound 0.0003 µM, first compound 0.316 µM): 83.3%
- viability, T/C (second compound 0.0003 µM, first compound 1 µM): 98%
- viability, T/C (second compound 0.0003 µM, first compound 3.16 µM): 91.4%
- viability, T/C (second compound 0.0003 µM, first compound 10 µM): 70.7%
- viability, T/C (second compound 0.000949 µM, first compound 0.0316 µM): 41.3%
- viability, T/C (second compound 0.000949 µM, first compound 0.1 µM): 53.5%
- viability, T/C (second compound 0.000949 µM, first compound 0.316 µM): 46%
- viability, T/C (second compound 0.000949 µM, first compound 1 µM): 43.6%
- viability, T/C (second compound 0.000949 µM, first compound 3.16 µM): 44.3%
- viability, T/C (second compound 0.000949 µM, first compound 10 µM): 41.6%
- viability, T/C (second compound 0.003 µM, first compound 0.0316 µM): 13.1%
- viability, T/C (second compound 0.003 µM, first compound 0.1 µM): 12.2%
- viability, T/C (second compound 0.003 µM, first compound 0.316 µM): 12.1%
- viability, T/C (second compound 0.003 µM, first compound 1 µM): 13.5%
- viability, T/C (second compound 0.003 µM, first compound 3.16 µM): 12.6%
- viability, T/C (second compound 0.003 µM, first compound 10 µM): 9.87%
